Reference: patent US20180207294A1, “NON-ALCOHOLIC FATTY LIVER REGULATING FACTOR 14-3-3 PROTEIN” (Korea University Research and Business Foundation, priority 2015, published 2018)

Assays:
[1] = test system: primary mouse hepatocytes; experiment: Triglyceride colorimetric assay, primary mouse hepatocytes; format: cell-based; settings: primary mouse hepatocytes treated with oleic acid (200 μM, 72 hours); FIG. 10A
Protocol: A triglyceride (neutral fat) is a type of fatty acid and is used as an index of a fat content. A biochemical lipid test was carried out by measuring an amount of triglycerides. HepG2 cells and primary mouse hepatocytes were separately seeded in a 6-well plate at a density of 4×10^5 cells per each well, and then transfected with GFP-14-3-3β DNA (1 μg) or GFP-14-3-3γ DNA (1 μg) and si-14-3-3β (10 μM, Santa Cruz) or si-14-3-3γ (10 μM, Santa Cruz) using an E-fection plus reagent (Lugen). A ratio of DNA to the E-fection plus reagent was 1:2, and this method was performed according to a manufacturer's manual. After transfection, the cells were treated with 200 μM of oleic acid (OA) for 72 hours, and the amount of triglycerides was measured using a triglyceride colorimetric assay kit (Cayman Chemical). The corresponding cells were washed with ice-cold PBS and then scraped using a standard diluent assay reagent, the scrapping process was repeated using a sonicator 20 times to lyse the cells, and the lysed cells were reacted with an enzyme buffer solution for 15 minutes, followed by measurement using an ELISA reader (Bio-Rad Laboratories, Inc) at a wavelength of 550 nm.

[2] = test system: primary mouse hepatocytes; experiment: mRNA expression (real-time PCR) after oleic acid treatment, primary mouse hepatocytes; format: cell-based; settings: oleic acid 72 hours
Text: (§1) It is known that, in the liver of obese mice, the expression and activity of PPARγ2 are increased, and the expression of a target gene thereof is increased. To form such an obese environment in an in vitro experiment, mRNA expression amounts of PPARγ2, and 14-3-3β and 14-3-3γ were checked through treatment with oleic acid (OA), which is a type of fatty acid.
(§2) HepG2 cells and primary mouse hepatocytes were separately seeded in a 6-well plate at a density of 4x10^5 cells per each well, and then treated with 200 μM of oleic acid (OA) for 72 hours. For mRNA extraction, the corresponding cells were lysed with 1 ml/well of TRIzol (Invitrogen), 200 μl of chloroform was added thereto and mixed well, the resultant cells were maintained at room temperature for 5 minutes and then centrifuged at 12,000×g and 4° C. for 15 minutes, the obtained supernatant was mixed with 500 μl of isopropanol and then put on ice for 10 minutes, the resulting supernatant was centrifuged at 12,000×g and 4° C. for 15 minutes to remove a supernatant, and then pellets were dissolved with tertiary distilled water treated with diethyl pyrocarbonate (DEPC). 2 μg of mRNA was synthesized into cDNA using a Superscript First Strand cDNA Synthesis Kit (Bioneer, Daejeon, South Korea) and the synthesized cDNA as a template was amplified through polymerase chain reaction (PCR) using primers specific to PPARγ2, 14-3-3β, 14-3-3γ, SREBP-1c, SCD-1, ACC, FABP, FAT/CD36, and (β-actin of humans, and was amplified through real-time PCR using primers specific to PPARγ2, 14-3-3β, 14-3-3γ, SREBP-1c, FAT/CD36, and GAPDH of mice. β-actin and GAPDH were used as controls to see whether mRNAs of the respective cells were compared in the same amount.

HepG2 cells [3] = experiment: mRNA expression (PCR) after oleic acid treatment, HepG2 cells; format: cell-based, human; settings: oleic acid 72 hours
Text: as §1, §2

HepG2 cells [4] = experiment: Oil Red-O lipid accumulation, HepG2 cells; format: cell-based; settings: concentration-dependent treatment of oleic acid, FIG. 9A
Protocol: (§3) HepG2 cells and primary mouse hepatocytes were separately seeded in a 6-well plate at a density of 4×10^5 cells per each well, and then transfected with GFP-14-3-3β DNA (1 μg) or GFP-14-3-3γ DNA (1 μg) and si-14-3-3β (10 μM, Santa Cruz) or si-14-3-3γ (10 μM, Santa Cruz) using an E-fection plus reagent (Lugen). A ratio of DNA to the E-fection plus reagent was 1:2, and this method was performed according to a manufacturer's manual. […] The stained cells were bleached with 1 ml of isopropanol and analyzed at a wavelength of 550 nm using a DU530 spectrophotometer (Beckman Instruments, Palo Alto, Calif.).

[5] = test system: primary mouse hepatocytes; experiment: Oil Red-O lipid accumulation, primary mouse hepatocytes; format: cell-based; settings: concentration-dependent treatment of oleic acid, FIG. 9A
Protocol: as §3

PPARγ2 and 14-3-3β = molecular target: T1, PPARγ2 and 14-3-3β (Homo sapiens, UniProt P37231); experiment: GST-pull down assay, PPARγ2 / 14-3-3β binding with oleic acid treatment (HEK-293T); settings: 200 μM oleic acid 72 hours; FIG. 8A
T1 construct: expressed in transfected cells; host or cells: HEK-293T
T1 sequence (P37231 1-505): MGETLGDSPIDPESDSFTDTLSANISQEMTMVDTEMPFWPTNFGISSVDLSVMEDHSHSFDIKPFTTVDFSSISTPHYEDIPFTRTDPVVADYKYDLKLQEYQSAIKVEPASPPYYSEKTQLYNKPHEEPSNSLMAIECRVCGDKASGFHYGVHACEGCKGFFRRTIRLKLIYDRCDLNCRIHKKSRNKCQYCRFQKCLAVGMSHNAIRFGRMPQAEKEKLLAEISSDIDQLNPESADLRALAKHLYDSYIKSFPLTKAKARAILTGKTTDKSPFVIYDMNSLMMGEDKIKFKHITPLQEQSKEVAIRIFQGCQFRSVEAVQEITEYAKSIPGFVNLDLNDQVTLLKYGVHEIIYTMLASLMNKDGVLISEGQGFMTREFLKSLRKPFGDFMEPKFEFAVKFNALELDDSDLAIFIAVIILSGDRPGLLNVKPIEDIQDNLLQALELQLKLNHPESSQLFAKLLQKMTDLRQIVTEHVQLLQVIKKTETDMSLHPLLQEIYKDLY
T1 sequence (P31946 1-246 partner): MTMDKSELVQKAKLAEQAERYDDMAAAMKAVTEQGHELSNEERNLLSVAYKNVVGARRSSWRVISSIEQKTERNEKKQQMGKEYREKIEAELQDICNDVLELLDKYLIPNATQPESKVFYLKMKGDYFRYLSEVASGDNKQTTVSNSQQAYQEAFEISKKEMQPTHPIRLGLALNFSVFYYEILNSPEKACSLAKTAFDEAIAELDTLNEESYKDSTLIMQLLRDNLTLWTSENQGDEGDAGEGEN
Protocol: (§4) HEK-293T cells were seeded in a 100 mm plate at a density of 2×10^6 cells per each well, and then transfected with mGST-PPARγ2DNA (4 μg) and HA-14-3-3β DNA (4 μg) or HA-14-3-3γ DNA (4 μg) using an E-fection plus reagent (Lugen). A ratio of DNA to the E-fection plus reagent was 1:2, and this method was performed according to a manufacturer's manual. After transfection, the cells were treated with 200 μM of oleic acid (OA) for 72 hours, washed with ice-cold PBS, and lysed with 500 μl/well of a lysis buffer (150 mM NaCl, 1 mM EDTA, 1% Nonidet P-40, 5% glycerol, 25 mM tris-HCl, pH 7.5, protease inhibitor added), the lysed cells were centrifuged at 10,000×g and 4° C. for 10 minutes to extract proteins, 1,000 μg of the proteins was reacted with 20 μl of glutathione Sepharose 4B beads (GE Healthcare, Buckinghamshire, UK) for 6 hours, washing of the beads with 1 ml of ice-cold PBS was repeated 5 times, the resulting beads were boiled at 100° C. for 10 minutes, and the proteins were separated on a 10% SDS-PAGE gel and identified using each of the antibodies (GST, HA: Santa Cruz) by western blotting, and all antibodies were used in a ratio of 1:3000.

PPARγ2 and 14-3-3γ = molecular target: T2, PPARγ2 and 14-3-3γ (Homo sapiens, UniProt P37231); experiment: GST-pull down assay, PPARγ2 / 14-3-3γ binding with oleic acid treatment (HEK-293T); settings: 200 μM oleic acid 72 hours; FIG. 8B
T2 construct: expressed in transfected cells; host or cells: HEK-293T
T2 sequence (P37231 1-505): T1 sequence (P37231 1-505)
Protocol: as §4

Structure (SMILES): CCCCCCCC/C=C\CCCCCCCC(=O)O [oleic acid]
- triglyceride accumulation [1]: triglyceride accumulation was increased
- mRNA expression amount of 14-3-3β ([2]; FIG. 6B): no changes
- mRNA expression amount of 14-3-3γ ([2]; FIG. 6B): no changes
- mRNA expression of PPARγ2 ([2]; FIG. 6B): increased in an oleic acid concentration-dependent manner
- mRNA expression of lipid metabolism-associated genes (PPARγ2 target genes) ([2]; FIG. 6D): also increased in an oleic acid concentration-dependent manner
- mRNA expression amount of 14-3-3β (HepG2 cells [3]; FIG. 6A): no changes
- mRNA expression amount of 14-3-3γ (HepG2 cells [3]; FIG. 6A): no changes
- mRNA expression of PPARγ2 (HepG2 cells [3]; FIG. 6A): increased in an oleic acid concentration-dependent manner
- mRNA expression of lipid metabolism-associated genes (PPARγ2 target genes) (HepG2 cells [3]; FIG. 6C): also increased in an oleic acid concentration-dependent manner
- lipid accumulation (Oil Red-O) (HepG2 cells [4]): lipid accumulation was increased
- lipid accumulation (Oil Red-O) [5]: lipid accumulation was increased
- binding between PPARγ2 and 14-3-3β (PPARγ2 and 14-3-3β): increased
- binding between PPARγ2 and 14-3-3γ (PPARγ2 and 14-3-3γ): reduced
